The results in this text go back to paper PMC7127169 (Bioorganic & Medicinal Chemistry, 2012).

Entries after “also recorded” stand apart in the source; their conditions may differ.

Experiment [1] has as its target SARS-CoV PL^pro deubiquitination (DUB) activity (Severe acute respiratory syndrome coronavirus, UniProt P0C6U8). The experiment can be described thus: biochemical.
The target of experiment [2] is T1, SARS-CoV PL^pro (Severe acute respiratory syndrome coronavirus, UniProt P0C6U8). It counts as biochemical.
Experiment [3] addresses Chymotrypsin (Bos taurus, UniProt P00766). The experiment can be described thus: biochemical.
Experiment [4] concerns the target HIV-1 protease (Human immunodeficiency virus type 1 group M subtype B, UniProt P04585). The experiment can be described thus: biochemical.
Experiment [5] concerns the target T2, Papain (Carica papaya, UniProt P00784).
T2 sequence (P00784 134-345): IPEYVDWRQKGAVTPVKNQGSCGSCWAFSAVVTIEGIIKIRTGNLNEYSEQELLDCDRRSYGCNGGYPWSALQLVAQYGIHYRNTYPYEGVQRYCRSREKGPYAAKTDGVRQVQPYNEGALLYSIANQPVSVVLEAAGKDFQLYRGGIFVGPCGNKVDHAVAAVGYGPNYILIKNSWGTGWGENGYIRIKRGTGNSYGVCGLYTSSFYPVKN
The experiment can be described thus: biochemical.

The target in experiment [6] is T1, SARS-CoV PL^pro. It counts as biochemical. This is another data set of the same source.
Experiment [7] has as its target SARS-CoV 3CL^pro (Severe acute respiratory syndrome coronavirus, UniProt P0C6U8). Format: biochemical. Conditions: at 200 μM.

What is called IC50 is the concentration that inhibits the measured activity by half. A lower IC50 goes with greater potency.

For `Cc1coc2c1C(=O)C(=O)c1c-2ccc2c1CCCC2(C)C` [Compound 1, Tanshinone IIA], in experiment [1], the half-inhibitory concentration (IC50) was > 200 µM. In experiment [2], this compound had a k5 of 0.04825 ± 0.006 min⁻¹ and a k6 of 0.008485 ± 0.0001 min⁻¹.

In the case of `Cc1coc2c1C(=O)C(=O)c1c-2ccc2c1CCCC2(C)CO` (stereo not shown) [Compound 2, Tanshinone IIB], the IC50 in experiment [3], in experiment [4] and in experiment [5] was > 200 µM in each case. Moreover, the k5 in experiment [2] worked out at 0.02503 ± 0.003 min⁻¹. In experiment [2], the k6 was found to be 0.004704 ± 0.0002 min⁻¹.

As to `COC(=O)[C@@]1(C)CCCc2c1ccc1c2C(=O)C(=O)c2c(C)coc2-1` [Compound 3, Methyl tanshinonate], the IC50 in experiment [1] and in experiment [5] was > 200 µM throughout. Also, the k5 in experiment [2] was determined as 0.0193 ± 0.001 min⁻¹. For the same compound, the k6 in experiment [2] is 0.002657 ± 0.0002 min⁻¹.

Turning to `C[C@H]1COC2=C1C(=O)C(=O)c1c2ccc2c1CCCC2(C)C` [Compound 4, Cryptotanshinone], the “type of inhibition toward PL^pro” value in experiment [6] is “Noncompetitive inhibition”. Also, in experiment [2], the k5 stood at 0.08127 ± 0.001 min⁻¹, the k6 was found to be 0.001406 ± 0.0001 min⁻¹ and the “slow-binding inhibition mechanism on PL^pro” value was “slow-binding inhibition kinetics”.

With `Cc1coc2c1C(=O)C(=O)c1c-2ccc2c(C)cccc12` [Compound 5, Tanshinone I], the concentration for half-maximal inhibition (IC50) in experiment [5] was > 200 µM. For the same compound, in experiment [2], the k5 is 0.03015 ± 0.003 min⁻¹ and the k6 was found to be 0.003349 ± 0.0003 min⁻¹.

Regarding `Cc1cccc2c3c(ccc12)C1=C(C(=O)C3=O)[C@@H](C)CO1` [Compound 6, Dihydrotanshinone I], the IC50 in experiment [3] was > 200 µM. Moreover, the IC50 in experiment [5] was > 200 µM. For the same compound, in experiment [2], the k5 was found to be 0.03203 ± 0.001 min⁻¹ and the k6 came out at 0.003175 ± 0.0003 min⁻¹.

As to `CC(C)C1=Cc2ccc3c(c2C(=O)C1=O)CCCC3(C)C` [Compound 7, Rosmariquinone], the “type of inhibition toward PL^pro” value in experiment [6] is “mixed type inhibition”. Further, in experiment [2], the k3 turned out to be 5 ± 0.83 M⁻¹ s⁻¹, the k4 amounted to 0.006483 ± 0.0004 min⁻¹ and the “slow-binding inhibition mechanism on PL^pro” value is given as “simple reversible slow-binding inhibition; also recorded: simple slow-binding mode; also recorded: simple reversible slow-binding inhibitor”.

For the compound Salvianolic acid B, the “inhibition of 3CL^pro” value in experiment [7] is on record as 30%.
